Reference: publication PMC7290441 (Viruses, 2020)
Counter-ions that a name gives are not always drawn.

Molecular target: PR8M2-S (A27V/N31S reverse mutant of PR8 M2) (Influenza A virus, UniProt P06821, A27V/N31S)
Format: biochemical
Conditions: pH 5.2

SMILES	effect on proton channel function of PR8M2-S
NC12CC3CC(CC(C3)C1)C2 [AMT, amantadine hydrochloride]	inhibited
CC(CCc1ccccc1)NC(C)C(O)c1ccc(O)cc1 (centres unmarked) [Nylidrin, nylidrin]	no effect
